Key:
Format in all cases: physicochemical
[1] = Solubility of surfactant in BOE (saturation point); settings: BOE 7-1; prior to filtration
Protocol: Potential surfactant candidates were prepared and evaluated in an aqueous mixture comprised of about 35% by weight of ammonium fluoride, NH4F, and about 6.3% by weight of hydrofluoric acid, HF, (defined as BOE 7-1).

[2] = Surface tension measurement of surfactant-containing etchant; settings: BOE 7-1 (about 35% NH4F, about 6.3% HF); 25° C.; prior to filtration; incremental additions until ST stabilized or saturation
Protocol: In the examples, a surfactant was added to a mixture of predetermined amounts of hydrofluoric acid, ammonium fluoride and deionized water to prepare an etchant composition. The prepared composition was kept standing at room temperature and test samples were periodically withdrawn to measure the change of surface tension of the composition.
(§1) A preliminary testing was conducted prior to filtration to evaluate whether individual components of the claimed surfactant(s), would work individually, need modification, or require combining to give a basic understanding which would lead to synthesis of the surfactant(s) of the invention. Potential surfactant candidates were prepared and evaluated in an aqueous mixture comprised of about 35% by weight of ammonium fluoride, NH4F, and about 6.3% by weight of hydrofluoric acid, HF, (defined as BOE 7-1).
In this run, surfactant “H” was tested with an aqueous solution of mixed etchants consisting of about 85% by weight of sulfuric acid, about 5% by weight of nitric acid, and about 1.5% by weight hydrofluoric acid. 100 ppm (Sample 1) and 200 ppm (Sample 2) by weight of surfactant “H” were mixed into two separate samples of FS Etch. The surface tension of both unfiltered samples was measured 1 hour upon batch completion and after 15 days of storage.
Additional measurements of surface tension at 25° C. were carried out on unfiltered aqueous etchants of (1) 40% by weight ammonium fluoride, and (2) 9.2% by weight of hydrofluoric acid containing 100 ppm by weight of surfactant “H” (Table I).

[3] = Preliminary testing of potential surfactants: comments and overall assessment; settings: BOE 7-1; prior to filtration
Protocol: as §1

| SMILES | Solubility In BOE [1] | Surface Tension [2] [dynes/cm] | Comments [3] | Promising (Yes/No) [3] |
| --- | --- | --- | --- | --- |
| O=C(O)C(F)(F)C(F)(F)C(F)(F)C(F)(F)F [Surfactant G, Perfluoropentanoic Acid] | ≦100 ppm | 24 | Precipitated | No |
| O=C(O)C(F)(F)C(F)(F)C(F)(F)C(F)(F)C(F)(F)C(F)(F)C(F)(F)C(F)(F)F [Surfactant F, Perfluorononanoic Acid] | ≦100 ppm | 25 | Precipitated | No |
| O=C(O)C(F)(F)C(F)(F)C(F)(F)C(F)(F)C(F)(F)C(F)(F)C(F)(F)F [Surfactant D, Perfluorooctanoic Acid] | ≦100 ppm | 20 | Precipitated | No |
| NC1CCCCCC1 [Surfactant A, Cycloheptylamine] | ≦400 ppm | 72 | ST too high | No |
| NC1CCCC1 [Surfactant C, Cyclopentylamine] | ≦400 ppm | 65 | ST too high | No |
| NC1CCCCCCC1 [Surfactant B, Cyclooctylamine] | ≦600 ppm | 65 | ST too high | No |
| O=C(O)C(F)(F)C(F)(F)C(F)(F)C(F)(F)C(F)(F)C(F)(F)F [Surfactant E, Perfluoroheptanoic Acid] | ≦100 ppm | 20 | Precipitated | No |

Source: patent US20060097218A1, “Etchants containing filterable surfactant” (General Chemical Performance Products LLC, priority 2004, published 2006)
